Data: patent publication US20240376123A1, “KRAS G12D INHIBITORS AND USES THEREOF” (SUZHOU ZANRONG PHARMA LIMITED, priority 2021, published 2024)

What follows are compounds tested on p-ERK in PNAC-1/HPAC cell (assay: Phospho-ERK 1/2 assay (Table 1)). Settings: Homo sapiens, HPAC, 3 h, read-out: p-ERK IC50, PNAC-1/HPAC cell, 3 hours compound incubation.
Type: cell-based
Method: Allow PNAC-1/HPAC cell growth in a T75 flask in DMEM and 10% 1 fetal calf serum (FCS; Gibco), using standard tissue culture procedures until ˜80% confluency is achieved. Day 1, seed 6000 cells/well in 384 well plate and incubate at 37° C., 5% CO2. Add diluted compound by Echo 550, final DMSO is 0.5%, incubate cells at 37° C., 5% CO2 for 3 hours. Then, remove medium and fix cells with 3.7% formaldehyde in PBS (PFA) by Apricot. Wash with PBS once. Permeabilize cells with cold 100% methanol and repeat wash once with PBS once. Add Li-Cor blocking buffer to each well and incubate 1.5 hours at RT. Remove blocking buffer and add primary antibody mixture (rabbit anti pERK, mouse anti GAPDH). Incubate at 4° C. overnight. Day 2, wash with PBST (Tween-20 in PBS) with total 3 times and then add secondary antibody mixture (goat anti rabbit 800CW (1:800 dilution in the combined solution) and goat anti mouse 680RD (1:800 dilution in the combined solution)), incubate for 60 minutes at RT away from light. Repeat washing with PBST 3 times. After final wash, centrifuge plate up-side-down at 1000 rpm to remove wash solution completely from wells. Before plate scanning, clean the bottom plate surface and the Odyssey* Imager scanning bed (if applicable) with moist, lint-free tissue to avoid any obstructions during scanning. Scan plate with detection in both 700 and 800 nm channels.

SMILES | IC50 [nM]
C#Cc1c(F)ccc2cccc(-c3nc4c5c(nc(OCC67CCCN6C(COC(=O)N(C)C)CC7)nc5c3F)N3CC5CCC(N5)[C@H]3CO4)c12 (stereo in doubt) [Compound 37, (7a-((((5aS,6R,9S)-2-(8-ethynyl-7-fluoronaphthalen-1-yl)-1-fluoro-5a,6,7,8,9,10-hexahydro-5H-4-oxa-3,10a,11,13,14-pentaaza-6,9-methanonaphtho[1,8-ab]heptalen-12-yl)oxy)methyl)hexahydro-1H-pyrrolizin-3-yl)methyl dimethylcarbamate] | 50

Same assay, conditions: Homo sapiens; PNAC-1/HPAC cell, 3 hours compound incubation; read-out: p-ERK IC50

SMILES | IC50 [nM]
Fc1ccc2cccc(-c3nc4c5c(nc(OC[C@@]67CCCN6C[C@H](F)C7)nc5c3F)N3C[C@@H]5CC[C@@H](N5)C3CO4)c2c1Cl (stereo partly drawn) [Compound 11, (6R,9S)-2-(8-chloro-7-fluoronaphthalen-1-yl)-1-fluoro-12-(((2R,7aS)-2-fluorotetrahydro-1H-pyrrolizin-7a(5H)-yl)methoxy)-5a,6,7,8,9,10-hexahydro-5H-4-oxa-3,10a,11,13,14-pentaaza-6,9-methanonaphtho[1,8-ab]heptalene] | 53
C#Cc1c(F)ccc2cccc(-c3nc4c5c(nc(OC[C@@]67CCCN6C[C@H](F)C7)nc5c3F)N3CC5CCC(N5)C3CO4)c12 (stereo partly drawn) [Compound 8, (6R,9S)-2-(8-ethynyl-7-fluoronaphthalen-1-yl)-1-fluoro-12-(((2R,7aS)-2-fluorotetrahydro-1H-pyrrolizin-7a(5H)-yl)methoxy)-5a,6,7,8,9,10-hexahydro-5H-4-oxa-3,10a,11,13,14-pentaaza-6,9-methanonaphtho[1,8-ab]heptalene] | 9
Fc1c(-c2cccc3cccc(Cl)c23)nc2c3c(nc(OC[C@@]45CCCN4C[C@H](F)C5)nc13)N1C[C@@H]3CC[C@@H](N3)C1CO2 (stereo partly drawn) [Compound 12, (6R,9S)-2-(8-chloronaphthalen-1-yl)-1-fluoro-12-(((2R,7aS)-2-fluorotetrahydro-1H-pyrrolizin-7a(5H)-yl)methoxy)-5a,6,7,8,9,10-hexahydro-5H-4-oxa-3,10a,11,13,14-pentaaza-6,9-methanonaphtho[1,8-ab]heptalene] | 68
Oc1cc(-c2nc3c4c(nc(OC[C@@]56CCCN5C[C@H](F)C6)nc4c2F)N2C[C@H]4CC[C@H](N4)[C@H]2CO3)c2c(Cl)cccc2c1 [Compound 27, 5-chloro-4-((5aS,6S,9R)-1-fluoro-12-(((2R,7aS)-2-fluorotetrahydro-1H-pyrrolizin-7a(5H)-yl)methoxy)-5a,6,7,8,9,10-hexahydro-5H-4-oxa-3,10a,11,13,14-pentaaza-6,9-methanonaphtho[1,8-ab]heptalen-2-yl)naphthalen-2-ol] | 5
N#Cc1c(N)sc2cccc(-c3nc4c5c(nc(OC[C@@]67CCCN6C[C@H](F)C7)nc5c3F)N3C[C@@H]5CC[C@@H](N5)C3CO4)c12 (stereo partly drawn) [Compound 22, 2-amino-4-((6R,9S)-1-fluoro-12-(((2R,7aS)-2-fluorotetrahydro-1H-pyrrolizin-7a(5H)-yl)methoxy)-5a,6,7,8,9,10-hexahydro-5H-4-oxa-3,10a,11,13,14-pentaaza-6,9-methanonaphtho[1,8-ab]heptalen-2-yl)benzo[b]thiophene-3-carbonitrile] | 493
Fc1c(-c2cccc3cccc(F)c23)nc2c3c(nc(OC[C@@]45CCCN4C[C@H](F)C5)nc13)N1C[C@@H]3CC[C@@H](N3)C1CO2 (stereo partly drawn) [Compound 15, (6R,9S)-1-fluoro-2-(8-fluoronaphthalen-1-yl)-12-(((2R,7aS)-2-fluorotetrahydro-1H-pyrrolizin-7a(5H)-yl)methoxy)-5a,6,7,8,9,10-hexahydro-5H-4-oxa-3,10a,11,13,14-pentaaza-6,9-methanonaphtho[1,8-ab]heptalene] | 221
Fc1c(-c2cccc(Cl)c2C2CC2)nc2c3c(nc(OC[C@@]45CCCN4C[C@H](F)C5)nc13)N1C[C@@H]3CC[C@@H](N3)C1CO2 (stereo partly drawn) [Compound 23, (6R,9S)-2-(3-chloro-2-cyclopropylphenyl)-1-fluoro-12-(((2R,7aS)-2-fluorotetrahydro-1H-pyrrolizin-7a(5H)-yl)methoxy)-5a,6,7,8,9,10-hexahydro-5H-4-oxa-3,10a,11,13,14-pentaaza-6,9-methanonaphtho[1,8-ab]heptalene] | 375
C#Cc1c(F)ccc2cccc(-c3nc4c5c(nc(OCC67CCCN6C(COC(=O)N6CCOCC6)CC7)nc5c3F)N3CC5CCC(N5)[C@H]3CO4)c12 (stereo in doubt) [Compound 47, (7a-((((5aS,6R,9S)-2-(8-ethynyl-7-fluoronaphthalen-1-yl)-1-fluoro-5a,6,7,8,9,10-hexahydro-5H-4-oxa-3,10a,11,13,14-pentaaza-6,9-methanonaphtho[1,8-ab]heptalen-12-yl)oxy)methyl)hexahydro-1H-pyrrolizin-3-yl)methyl morpholine-4-carboxylate] | 105
Fc1ccc2cccc(-c3nc4c5c(nc(OC[C@@]67CCCN6C[C@H](F)C7)nc5c3F)N3C[C@@H]5CC[C@@H](N5)C3CO4)c2c1 (stereo partly drawn) [Compound 16, (6R,9S)-1-fluoro-2-(7-fluoronaphthalen-1-yl)-12-(((2R,7aS)-2-fluorotetrahydro-1H-pyrrolizin-7a(5H)-yl)methoxy)-5a,6,7,8,9,10-hexahydro-5H-4-oxa-3,10a,11,13,14-pentaaza-6,9-methanonaphtho[1,8-ab]heptalene] | 355
[2H]C#Cc1c(F)ccc2cccc(-c3nc4c5c(nc(OC[C@@]67CCCN6C[C@H](F)C7)nc5c3F)N3CC5CCC(N5)[C@H]3CO4)c12 (stereo in doubt) [Compound 34, (5aS,6R,9S)-2-(8-(ethynyl-d)-7-fluoronaphthalen-1-yl)-1-fluoro-12-(((2R,7aS)-2-fluorotetrahydro-1H-pyrrolizin-7a(5H)-yl)methoxy)-5a,6,7,8,9,10-hexahydro-5H-4-oxa-3,10a,11,13,14-pentaaza-6,9-methanonaphtho[1,8-ab]heptalene] | 5
Fc1ccc2cccc(-c3nc4c5c(nc(OC[C@@]67CCCN6C[C@H](F)C7)nc5c3F)N3C[C@@H]5CC[C@@H](N5)C3CO4)c2c1F (stereo partly drawn) [Compound 14, (6R,9S)-2-(7,8-difluoronaphthalen-1-yl)-1-fluoro-12-(((2R,7aS)-2-fluorotetrahydro-1H-pyrrolizin-7a(5H)-yl)methoxy)-5a,6,7,8,9,10-hexahydro-5H-4-oxa-3,10a,11,13,14-pentaaza-6,9-methanonaphtho[1,8-ab]heptalene] | 141
C#Cc1cccc2cc(O)cc(-c3nc4c5c(nc(OC[C@@]67CCCN6C[C@H](F)C7)nc5c3F)N3C[C@H]5CC[C@H](N5)[C@H]3CO4)c12 [Compound 31, 5-ethynyl-4-((5aS,6S,9R)-1-fluoro-12-(((2R,7aS)-2-fluorotetrahydro-1H-pyrrolizin-7a(5H)-yl)methoxy)-5a,6,7,8,9,10-hexahydro-5H-4-oxa-3,10a,11,13,14-pentaaza-6,9-methanonaphtho[1,8-ab]heptalen-2-yl)naphthalen-2-ol] | 8
C#Cc1c(F)ccc2cccc(-c3nc4c5c(nc(C(=O)N[C@H](C)CN(C)C)nc5c3F)N3CC5CCC(N5)[C@H]3CO4)c12 (stereo in doubt) [Compound 33, (5aS,6R,9S)—N—((R)-1-(dimethylamino)propan-2-yl)-2-(8-ethynyl-7-fluoronaphthalen-1-yl)-1-fluoro-5a,6,7,8,9,10-hexahydro-5H-4-oxa-3,10a,11,13,14-pentaaza-6,9-methanonaphtho[1,8-ab]heptalene-12-carboxamide] | 75
Fc1cccc(-c2nc3c4c(nc(OC[C@@]56CCCN5C[C@H](F)C6)nc4c2F)N2C[C@@H]4CC[C@@H](N4)C2CO3)c1C1CC1 (stereo partly drawn) [Compound 21, (6R,9S)-2-(2-cyclopropyl-3-fluorophenyl)-1-fluoro-12-(((2R,7aS)-2-fluorotetrahydro-1H-pyrrolizin-7a(5H)-yl)methoxy)-5a,6,7,8,9,10-hexahydro-5H-4-oxa-3,10a,11,13,14-pentaaza-6,9-methanonaphtho[1,8-ab]heptalene] | 1230
CCc1c(F)ccc2cccc(-c3nc4c5c(nc(OC[C@@]67CCCN6C[C@H](F)C7)nc5c3F)N3C[C@@H]5CC[C@@H](N5)C3CO4)c12 (stereo partly drawn) [Compound 4, (6R,9S)-2-(8-ethyl-7-fluoronaphthalen-1-yl)-1-fluoro-12-(((2R,7aS)-2-fluorotetrahydro-1H-pyrrolizin-7a(5H)-yl)methoxy)-5a,6,7,8,9,10-hexahydro-5H-4-oxa-3,10a,11,13,14-pentaaza-6,9-methanonaphtho[1,8-ab]heptalene] | 121

Same assay, conditions: read-out: p-ERK IC50; PNAC-1/HPAC cell, 3 hours compound incubation

SMILES | IC50 [nM]
C#Cc1c(F)ccc2cccc(-c3nc4c5c(nc(OCC67CCCN6C(COC(=O)N(C)C)CC7)nc5c3F)N3CC5CCC(N5)[C@H]3CO4)c12 (stereo in doubt) [Compound 38, (7a-((((5aS,6R,9S)-2-(8-ethynyl-7-fluoronaphthalen-1-yl)-1-fluoro-5a,6,7,8,9,10-hexahydro-5H-4-oxa-3,10a,11,13,14-pentaaza-6,9-methanonaphtho[1,8-ab]heptalen-12-yl)oxy)methyl)hexahydro-1H-pyrrolizin-3-yl)methyl dimethylcarbamate] | 70
